Assay results: patent publication US9181196B2, “Pharmaceutical compounds” (KEMOTECH S.r.l., priority 2013, dated 2015)

Tests used:
[1] = test system: Aorta sections (angiogenesis induced by FGF-2); test: Angiogenesis test ex vivo (aorta section), FGF-2 induced sprouting in Matrigel; format: cell-based, C57BL/6 mice; conditions: for Sprouting area (% vs. control): FGF-2 30 ng/ml, eleven days, control = 100%
Description: Aorta sections (aorta rings of about 1 mm) taken from C57BL/6 mice, are dipped in a Matrigel gel (BD Biosciences), in 96 well plates, in DMEM 5% FCS containing FGF-2 (30 ng/ml) together with the compounds of the invention at concentrations in the range indicated herein below. By using an inverted microscope (IX70; Olympus) after some days it is observed in the plate the formation of a network of capillary structures irradiating from the aorta section. Images were taken and analyzed by ImageJ 1.41. After eleven days from the beginning of the experiment the angiogenic response is quantified as sprouting area, therefore subtracting the area of the aorta section.
The compounds of the examples 2, 4 and 10 and, as a reference, the reference compound sm27 at concentrations comprised between 50 and 100 μM were used. In Table 4 the results are reported, expressed as a percent variation (decrease) of the sprouting area with respect to that of the control (presence of FGF-2 only).
In FIG. 1 the aorta sections are reported, analyzed after eleven days in absence (left photo—(a)) or in the presence (right photo (b)) of the compound obtained in example 10 (concentration 100 μM). […]

FGF-2 = FGF-2 (Homo sapiens, UniProt P09038); test: Competition with biotinylated TS3R domain for binding to immobilized FGF-2 (DELFIA); conditions: for % TS3R/FGF-2 binding vs. control: control = 100% binding, average of 3 experiments
Sequence of FGF-2 (P09038 143-288, species assumed): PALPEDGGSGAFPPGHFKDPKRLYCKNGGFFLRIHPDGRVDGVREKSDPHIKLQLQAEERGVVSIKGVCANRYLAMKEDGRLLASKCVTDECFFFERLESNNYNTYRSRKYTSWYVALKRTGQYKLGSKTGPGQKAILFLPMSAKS
Excerpt: For the evaluation of the binding of the compounds of the invention to FGF-2, the test described in G. Colombo et al. J. Biol. Chem., 285: 8733, 2010 has been used. In this reference the binding test has been used to assay the binding of compound sm27 to FGF-2. Specifically, the test allows to evaluate the capability of the compounds under examination to compete with the biotinylated TS3R domain (the recombinant part of Thrombospondine 1 (TSP-1) containing the bond sequence for FGF-2), for the binding to FGF-2 immobilized on a plastic support.
In detail, FGF-2 (0.1 μg) has been immobilized on 96 well plates (DELFIA microtitration plates, Perkin Elmer) leaving into contact for one night at 4° C. by using known techniques. After saturation of the non specific sites with 1% BSA, the compounds to be tested and then the biotinylated TS3R domain (10 nM) in PBS 1% BSA were added. After a period of incubation of 3 hours, the plate was washed and treated with Eu-Labeled Streptavidin 1:1000 and incubated again for one further hour. The amount of TS3R bound to FGF was determined with DELFIA Enhancement Solution, measuring the resolved fluorescence (Victor, PerkinElmer).
The test was carried out on the compounds of examples 2, 4, 8, 10 and 12. The used concentrations were respectively of 10 and 100 μM. The obtained results are reported in Table 1 and have been expressed as inhibition percentage of the TS3R/FGF-2 binding induced by the compounds of the invention vs. the control (TS3R/FGF-2 binding in the absence of the compounds of the invention). As a reference compound sm27 was used and assayed at a concentration of 100 μM. […] The compounds of the invention in this test are as effective as sm27 at the assayed dose of 100 μM.
By using the test in vitro described in example 17 the binding to FGF-2 of the compounds (2p) and (2r) having the formulas herein below reported, has been assayed. These compounds are disclosed by G. A. Pinna et al. on Il Farmaco 58 (2003) 749-763.

BAEC cells [2] = test: Inhibition of the proliferation of endothelial cells induced by FGF-2 (Crystal Violet); format: cell-based, Bovine; conditions: FGF-2 5 ng/ml, 72 h
Description: BAEC cells (25000/ml) in DMEM 1.5% FCS were sown in 96 well plates. After 24 h the culture medium was substituted with DMEM 0.5% FCS containing the compounds of the invention at different concentrations in the range indicated herein below, and FGF-2 (5 ng/ml) or 10% FCS, added as stimulator of the cellular proliferation. After 72 h of incubation, the cells were fixed and stained with Crystal Violet, (Sigma). The stain was then eluted by using a solution 1:1 of ethanol and sodium citrate 0.1M and the absorption of the solution determined at the wave length of 540 nm.
In this test the compounds of examples 2, 4, 8 and 10 were used. For each compound several concentrations comprised between 10 and 100 μM were prepared. The obtained results are reported in Table 3 and have been given as percent reduction of the cellular proliferation of endothelial cells in the presence of FGF-2, induced by the compounds of the invention, with respect to the control (proliferation in the presence of FGF-2 only).

[3] = target: T1, FGF-2 binding to BAEC cells (Bovine Aortic Endothelial Cells) (Homo sapiens, UniProt P09038); test: Inhibition of the binding of europium-labelled FGF-2 to endothelial cells; format: cell-based; conditions: 100 μM; control = 100% binding; average of 3 experiments
T1 construct: host or cells: added exogenously to BAEC (Bovine Aortic Endothelial Cells)
T1 sequence (P09038 143-288): as the sequence (P09038 143-288, species assumed) above
Description: Sub-confluent BAEC cells (Bovine Aortic Endothelial Cells), in 96 well plates, were incubated with DMEM without serum for 30 minutes at 4° C. The compound of the invention to be assayed and FGF-2, labelled with europium (FGF-Eu, 10 ng/ml), were added in DMEM containing 0.15% gelatine and HEPES 25 mM. The plate was incubated for 2 hours at 4° C. After washings with cold medium, the amount of FGF-Eu bound to the cells was determined with DELFIA Enhancement Solution by measuring the time resolved fluorescence (Victor, PerkinElmer).
The compounds obtained in examples 2, 4, 8 and 10 were used at a concentration of 100 μM. As a reference the compound sm27 was used. The obtained results are reported in Table 2 and are expressed as inhibition percentage of the FGF-2 binding to endothelial cells induced by the compounds of the invention and by sm27 vs. the control (FGF-2 bond to endothelial cells in absence of inhibition). The value obtained with the control was assumed as 100% binding.
Example 18 has been repeated by using the two compounds of the prior art (2p) and (2r).

BAEC cells [4] = test: Inhibition of the proliferation of endothelial cells induced by FGF-2 (Crystal Violet); format: cell-based, Bovine; conditions: Table 6; 100 μM; expressed as in Table 2; average of 3 experiments

Row | % TS3R/FGF-2 binding vs. control (FGF-2; 100 μM) | Inhibition of the FGF-2 binding to endothelial cells (% binding FGF-2/endothelial cells vs. control) [3] | % TS3R/FGF-2 binding vs. control (FGF-2; 10 μM) | SMILES | Sprouting area (% vs. control) ([1]; 100 μM) | Cell proliferation (% vs. control) (BAEC cells [2]; 100 μM) | Cell proliferation (% vs. control) (BAEC cells [4]) | Inhibition of the angiogenesis induced by FGF-2 (aorta ring), in words [1] | Binding to FGF-2 / inhibition of TS3R/FGF-2 binding, in words (FGF-2; 100 μM) | Sprouting area (% vs. control) ([1]; 75 μM) | Cell proliferation (% vs. control) (BAEC cells [2]; 10 μM, control = 100%) | Cell proliferation (% vs. control) (BAEC cells [2]; 50 μM, control = 100%) | Sprouting area (% vs. control) ([1]; 50 μM)
1 | 98 ± 6% |  |  | CN(CCCNC(=O)c1nn(-c2ccc(Cl)cc2Cl)c2c1Cc1ccccc1-2)CCCNC(=O)c1nn(-c2ccc(Cl)cc2Cl)c2c1Cc1ccccc1-2 [Compound (2r), reference compound] | 91.1 ± 6% |  | 94 ± 6% | do not result active in inhibiting the angiogenesis induced by FGF-2 | do not show any significant binding to FGF-2 |  |  |  | 
2 | 96 ± 3% |  |  | CN(CCCNC(=O)c1nn(-c2ccccc2)c2c1Cc1ccccc1-2)CCCNC(=O)c1nn(-c2ccccc2)c2c1Cc1ccccc1-2 [Compound (2p), reference compound] | 95.5 ± 5% |  | 97 ± 4% | do not result active in inhibiting the angiogenesis induced by FGF-2 | do not show any significant binding to FGF-2 |  |  |  | 
3 | 13 ± 3% | 22 ± 3% | 25 ± 3% | O=C(NCCCNC(=O)c1nn(-c2ccc(Cl)cc2Cl)c2c1Cc1cc(S(=O)(=O)O)sc1-2)c1nn(-c2ccc(Cl)cc2Cl)c2c1Cc1cc(S(=O)(=O)O)sc1-2 [Example 2, 3,3′-(propane-1,3-diylbis(azanediyl))bis(oxomethylene)bis(1-(2,4-dichlorophenyl)-1,4-dihydro-thieno[3′,2′:4,5]cyclopenta[1,2-c]pyrazole-6-sulfonic acid)] | 1.8 ± 0.7% | 8 ± 3% |  |  |  | 10.5 ± 5% | 90 ± 3% | 20 ± 4% | 43.9 ± 9%

The remaining lines, values behind:

Row | SMILES | % TS3R/FGF-2 binding vs. control (FGF-2; 100 μM) | Inhibition of the FGF-2 binding to endothelial cells (% binding FGF-2/endothelial cells vs. control) [3] | % TS3R/FGF-2 binding vs. control (FGF-2; 10 μM) | Sprouting area (% vs. control) ([1]; 100 μM) | Cell proliferation (% vs. control) (BAEC cells [2]; 100 μM) | Cell proliferation (% vs. control) (BAEC cells [4]) | Inhibition of the angiogenesis induced by FGF-2 (aorta ring), in words [1] | Binding to FGF-2 / inhibition of TS3R/FGF-2 binding, in words (FGF-2; 100 μM) | Sprouting area (% vs. control) ([1]; 75 μM) | Cell proliferation (% vs. control) (BAEC cells [2]; 10 μM, control = 100%) | Cell proliferation (% vs. control) (BAEC cells [2]; 50 μM, control = 100%) | Sprouting area (% vs. control) ([1]; 50 μM)
4 | O=C(Nc1ccc2cc(S(=O)(=O)O)cc(O)c2c1)Nc1ccc2cc(S(=O)(=O)O)cc(O)c2c1 [sm27, reference compound] | 17 ± 5% | 40 ± 2% |  | 44.0 ± 8% | 60 ± 6% |  |  |  |  |  |  | 
5 | O=C(NCCCCCCNC(=O)c1nn(-c2ccc(Cl)cc2Cl)c2c1Cc1cc(S(=O)(=O)O)sc1-2)c1nn(-c2ccc(Cl)cc2Cl)c2c1Cc1cc(S(=O)(=O)O)sc1-2 [Example 4, 3,3′-(hexane-1,6-diylbis(azanediyl))bis(oxomethylene)bis(1-(2,4-dichlorophenyl)-1,4-dihydro-thieno[3′,2′:4,5]cyclopenta[1,2-c]pyrazole-6-sulfonic acid)] | 20 ± 1% | 30 ± 3% | 40 ± 2% | 15.8 ± 4% | 30 ± 7% |  |  |  | 21.0 ± 5% | 92 ± 4% | 70 ± 6% | 
6 | Cc1ccc(Cn2nc(C(=O)NCCCCCCNC(=O)c3nn(Cc4ccc(C)cc4)c4c3Cc3cc(S(=O)(=O)O)sc3-4)c3c2-c2sc(S(=O)(=O)O)cc2C3)cc1 [Example 8, 3,3′-(hexane-1,6-diylbis(azanediyl))bis(oxomethylene)bis(1-(4-methylbenzyl)-1,4-dihydro-thieno[3′,2′:4,5]cyclopenta[1,2-c]pyrazole-6-sulfonic acid)] | 25 ± 4% | 28 ± 4% | 61 ± 5% |  | 36 ± 5% |  |  |  |  | 95 ± 2% | 80 ± 4% | 
